Laboratory results as given in patent publication US20050196466A1, “Process for inhibiting cell proliferation” (Pharmacyclics, Inc., priority 2004, published 2005).

How the values were obtained:
A549 cells [1] = assay: MTT assay, plateau phase A549 cells treated with 1-hydroxypyridine-2-thione, MGd and zinc; assay type: cell-based, human
From the text: (§1) Final mannitol concentration was 0.31% in all wells.

Ramos cells = assay: Cytotoxicity by propidium iodide uptake, flow cytometry; details: agent alone
Experimental: Gated cells with fluorescence at 585 nm from two cultures are shown for each time point. Error bars indicate standard deviation.
In other experiments (FIG. 11), Ramos cells grown in T-25 flasks were treated with a compound of Formula I (where M=Gd) (10 or 50 μM) and zinc (25 or 50 μM) for 1-2 days, Coulter counted, and analyzed by flow cytometry using propidium iodide.

A549 cells [2] = assay: MTT reduction proliferation assay, microtiter plate, A549 cells; assay type: cell-based, human; details: zinc by itself at 100 μM
From the text: as §1

| Structure (SMILES) | effect on A549 cells (A549 cells [1]; ZnHPT by itself at 0.625 μM, formed in situ from zinc acetate and 1-hydroxypyridine-2-thione, after one day (FIG. 12)) | cytotoxic dose of the zinc complex of 1-hydroxypyridine-2-thione (A549 cells [1]; in the presence of a compound of formula 1) | cytotoxicity as assessed by flow cytometry after staining with propidium iodide (Ramos cells) | effect on A549 cells (A549 cells [2]; after one day) | effect on A549 cells (A549 cells [2]; after three days) |
| --- | --- | --- | --- | --- | --- |
| c1cc[n+]2c(c1)[S][Zn]1([O]2)[O][n+]2ccccc2[S]1 [ZnHPT, Zinc complex of 1-hydroxypyridine-2-thione] | no significant effect | lowered | – | – | – |
| CC(=O)[O-].CC(=O)[O-].[Zn+2] [zinc, zinc acetate] | – | – | did not increase cytotoxicity | no significant effect | no significant effect |
